Test results reported in patent publication US5066652A, “Thiomethyl and sulfinylmethyl derivatives having gastric acid antisectetory activity and pharmaceutical compositions containing them” (Chiesi Farmaceutici S.p.A., priority 1988, dated 1991).

System: secretion of hydrochloric acid in the stomach (Shay ulcers)
Assay: Antisecretory activity - Shay ulcers (pylorus-ligated rat)
Type: in vivo
Settings: Rattus norvegicus, 2 h; α=1 represents 100% inhibition of gastric acid hypersecretion; read-out: α (approximate value of intrinsic activity)
Protocol: Antisecretory activity--Shay ulcers The gastric secretory inhibitory activity of the compounds of general formula (I) was determined in case of hypersecretion induced in the rat by ligation of gastroduodenal junction according to the procedure described by Shay (Shay H. et al, Gasgroenterology 5, 43-61, 1945). […] Thereafter, they were fasted for 24 hours, with water ad libitum, which period was sufficient to assure a good gastric emptying, then laparectomized under light ether anesthesia, so as to allow to effect a pylorus ligation as closer as possible to the gastroduodenal junction. Two hours after the ligation, the animals were killed by means of an ether excess and stomaches were removed. Gastric contents were recovered, after filtration through a gauze, and placed in graduated test-tubes and centrifuged at 3000×g for 15 minutes. The following parameters were evaluated on the surnatant: volume (ml); pH; free acidity by conversion of pH into H^+ μEq by means of Moore table (Ann. New York Acad. Sci. 1967, 866-874); titrable acidity, by titration of an amount with 0.02N NaOH, using phenolphtalein as the indicator. […] The results were expressed as percent inhibition of hypersecretion induced by pylorus ligation in the control rats. The obtained results are reported in table 3 as: ED50 (μmol/kg) calculated on the basis of the equation of the linear tract of does-effect curves obtained with the test compounds on volume, free and titrable acidities; […]

Point of comparison: `Cn1ccnc1[S+]([O-])Cc1ccc2ccccc2n1` (stereo not drawn) [XVIII, 1-methyl-2-(2'-quinolylmethylsulfinyl)imidazole], Emax 100%. Against it:
- COc1ccnc(C[S+]([O-])c2nccn2C)c1 (stereo not drawn) [XVI, 1-methyl-2-[2'-(4'-methoxypyridyl)methylsulfinyl]imidazole] — lower, 40 to 60%
- c1ccc2[nH]c(CSc3nc4cccnc4[nH]3)nc2c1 [XLVIII, 2-(2'-benzimidazolylmethylthio)imidazo-[4,5-b]-pyridine] — lower, 50 to 60%
- COc1ccc(C)nc1C[S+]([O-])c1ncnc2[nH]cnc12 (stereo not drawn) [XLVI, 6-[2'-(6'-methyl-3'-methoxypyridyl)methylsulfinyl]purine] — the same, 100%
- CN(C)c1ccccc1CSc1nccn1-c1ccccc1Cl [XXXI, 1-(2'-clorophenyl)-2-[2'-(N,N-dimethylanilyl)methylthio]imidazole] — lower, 90%
- CN(C)c1ccccc1CSc1nc2cncnc2[nH]1 [XLV, 8-[2'-(N,N-dimethylanilyl)methylthio]purine] — the same, 100%
- Cn1ccnc1SCc1nc2ccccc2[nH]1 [IX, 1-methyl-2-(2'-benzimidazolylmethylthio)imidazole.2HCl] — lower, 40 to 60%
- COc1c(C)cnc(C[S+]([O-])c2nccn2C)c1C (stereo not drawn) [XIV, 1-methyl-2-[2'-(3' ,5 '-dimethyl-4'-methoxy)pyridylmethylsulfinyl]imidazole] — lower, 60%
- Cn1ccnc1[S+]([O-])Cc1nc2cc(C(=O)c3ccccc3)ccc2[nH]1 (stereo not drawn) [XV, 1-methyl-2-[2'-(5'-benzoyl)benzimidazolylmethylsulfinyl]imidazole] — lower, 50 to 60%
- CN(C)c1ccccc1CSc1nccn1-c1ccccc1F [XXXII, 1-(2'-fluorophenyl)-2-[2'-(N,N-dimethylanilyl)methylthio]imidazole] — the same, 100%
- CN(C)c1ccccc1CSc1nccn1-c1ccc(Cl)cc1 [XXXIV, 1-(4'-chlorophenyl)-2-[2'-(N,N-dimethylanilyl)methylthio]imidazole. 2HCl] — the same, 100%
- COc1ccccc1-n1ccnc1SCc1ccccc1N(C)C [XXXIII, 1-(2'-methoxyphenyl)-2-[2'-(N,N-dimethylanilyl)methylthio]imidazole] — lower, 70 to 80%

Same assay, conditions: rat, pylorus ligation, 2 h, intraduodenal or intravenous; free acid output; read-out: ED50 free acid output

Point of comparison: `COc1ccnc(C[S+]([O-])c2nccn2C)c1` (stereo not drawn) [XVI, 1-methyl-2-[2'-(4'-methoxypyridyl)methylsulfinyl]imidazole], ED50 0.3 µmol/kg. Against it:
- c1ccc2[nH]c(CSc3nc4cccnc4[nH]3)nc2c1 [XLVIII, 2-(2'-benzimidazolylmethylthio)imidazo-[4,5-b]-pyridine] — higher, 164 µmol/kg
- COc1ccc(C)nc1C[S+]([O-])c1ncnc2[nH]cnc12 (stereo not drawn) [XLVI, 6-[2'-(6'-methyl-3'-methoxypyridyl)methylsulfinyl]purine] — higher, 33.1 µmol/kg
- CN(C)c1ccccc1CSc1nccn1-c1ccccc1Cl [XXXI, 1-(2'-clorophenyl)-2-[2'-(N,N-dimethylanilyl)methylthio]imidazole] — higher, 30.1 µmol/kg
- CN(C)c1ccccc1CSc1nc2cncnc2[nH]1 [XLV, 8-[2'-(N,N-dimethylanilyl)methylthio]purine] — higher, 17.8 µmol/kg
- Cn1ccnc1SCc1nc2ccccc2[nH]1 [IX, 1-methyl-2-(2'-benzimidazolylmethylthio)imidazole.2HCl] — higher, 53.2 µmol/kg
- COc1c(C)cnc(C[S+]([O-])c2nccn2C)c1C (stereo not drawn) [XIV, 1-methyl-2-[2'-(3' ,5 '-dimethyl-4'-methoxy)pyridylmethylsulfinyl]imidazole] — higher, 17.1 µmol/kg
- Cn1ccnc1[S+]([O-])Cc1nc2cc(C(=O)c3ccccc3)ccc2[nH]1 (stereo not drawn) [XV, 1-methyl-2-[2'-(5'-benzoyl)benzimidazolylmethylsulfinyl]imidazole] — higher, 0.6 µmol/kg
- Cn1ccnc1[S+]([O-])Cc1ccc2ccccc2n1 (stereo not drawn) [XVIII, 1-methyl-2-(2'-quinolylmethylsulfinyl)imidazole] — higher, 36.9 µmol/kg
- CN(C)c1ccccc1CSc1nccn1-c1ccccc1F [XXXII, 1-(2'-fluorophenyl)-2-[2'-(N,N-dimethylanilyl)methylthio]imidazole] — higher, 25.5 µmol/kg
- CN(C)c1ccccc1CSc1nccn1-c1ccc(Cl)cc1 [XXXIV, 1-(4'-chlorophenyl)-2-[2'-(N,N-dimethylanilyl)methylthio]imidazole. 2HCl] — higher, 6.1 µmol/kg
- COc1ccccc1-n1ccnc1SCc1ccccc1N(C)C [XXXIII, 1-(2'-methoxyphenyl)-2-[2'-(N,N-dimethylanilyl)methylthio]imidazole] — higher, 1.2 µmol/kg

Same assay, conditions: rat, pylorus ligation, 2 h, intraduodenal or intravenous; secretion volume; read-out: ED50 volume

Point of comparison: `Cn1ccnc1[S+]([O-])Cc1nc2cc(C(=O)c3ccccc3)ccc2[nH]1` (stereo not drawn) [XV, 1-methyl-2-[2'-(5'-benzoyl)benzimidazolylmethylsulfinyl]imidazole], ED50 3 µmol/kg. Against it:
- COc1ccnc(C[S+]([O-])c2nccn2C)c1 (stereo not drawn) [XVI, 1-methyl-2-[2'-(4'-methoxypyridyl)methylsulfinyl]imidazole] — lower, 2.3 µmol/kg
- c1ccc2[nH]c(CSc3nc4cccnc4[nH]3)nc2c1 [XLVIII, 2-(2'-benzimidazolylmethylthio)imidazo-[4,5-b]-pyridine] — higher, 522 µmol/kg
- COc1ccc(C)nc1C[S+]([O-])c1ncnc2[nH]cnc12 (stereo not drawn) [XLVI, 6-[2'-(6'-methyl-3'-methoxypyridyl)methylsulfinyl]purine] — higher, 52 µmol/kg
- CN(C)c1ccccc1CSc1nccn1-c1ccccc1Cl [XXXI, 1-(2'-clorophenyl)-2-[2'-(N,N-dimethylanilyl)methylthio]imidazole] — higher, 67.2 µmol/kg
- CN(C)c1ccccc1CSc1nc2cncnc2[nH]1 [XLV, 8-[2'-(N,N-dimethylanilyl)methylthio]purine] — higher, 31.2 µmol/kg
- Cn1ccnc1SCc1nc2ccccc2[nH]1 [IX, 1-methyl-2-(2'-benzimidazolylmethylthio)imidazole.2HCl] — higher, 65 µmol/kg
- COc1c(C)cnc(C[S+]([O-])c2nccn2C)c1C (stereo not drawn) [XIV, 1-methyl-2-[2'-(3' ,5 '-dimethyl-4'-methoxy)pyridylmethylsulfinyl]imidazole] — higher, 26.7 µmol/kg
- Cn1ccnc1[S+]([O-])Cc1ccc2ccccc2n1 (stereo not drawn) [XVIII, 1-methyl-2-(2'-quinolylmethylsulfinyl)imidazole] — higher, 40.3 µmol/kg
- CN(C)c1ccccc1CSc1nccn1-c1ccccc1F [XXXII, 1-(2'-fluorophenyl)-2-[2'-(N,N-dimethylanilyl)methylthio]imidazole] — higher, 34.2 µmol/kg
- CN(C)c1ccccc1CSc1nccn1-c1ccc(Cl)cc1 [XXXIV, 1-(4'-chlorophenyl)-2-[2'-(N,N-dimethylanilyl)methylthio]imidazole. 2HCl] — higher, 24.6 µmol/kg
- COc1ccccc1-n1ccnc1SCc1ccccc1N(C)C [XXXIII, 1-(2'-methoxyphenyl)-2-[2'-(N,N-dimethylanilyl)methylthio]imidazole] — the same, 3 µmol/kg

Same assay, conditions: rat, pylorus ligation, 2 h, intraduodenal or intravenous; titratable acid output; read-out: ED50 titratable acid output

Point of comparison: `COc1ccc(C)nc1C[S+]([O-])c1ncnc2[nH]cnc12` (stereo not drawn) [XLVI, 6-[2'-(6'-methyl-3'-methoxypyridyl)methylsulfinyl]purine], ED50 45.8 µmol/kg. Against it:
- COc1ccnc(C[S+]([O-])c2nccn2C)c1 (stereo not drawn) [XVI, 1-methyl-2-[2'-(4'-methoxypyridyl)methylsulfinyl]imidazole] — lower, 0.3 µmol/kg
- c1ccc2[nH]c(CSc3nc4cccnc4[nH]3)nc2c1 [XLVIII, 2-(2'-benzimidazolylmethylthio)imidazo-[4,5-b]-pyridine] — higher, 235 µmol/kg
- CN(C)c1ccccc1CSc1nccn1-c1ccccc1Cl [XXXI, 1-(2'-clorophenyl)-2-[2'-(N,N-dimethylanilyl)methylthio]imidazole] — higher, 55.1 µmol/kg
- CN(C)c1ccccc1CSc1nc2cncnc2[nH]1 [XLV, 8-[2'-(N,N-dimethylanilyl)methylthio]purine] — lower, 19.3 µmol/kg
- Cn1ccnc1SCc1nc2ccccc2[nH]1 [IX, 1-methyl-2-(2'-benzimidazolylmethylthio)imidazole.2HCl] — lower, 24.7 µmol/kg
- COc1c(C)cnc(C[S+]([O-])c2nccn2C)c1C (stereo not drawn) [XIV, 1-methyl-2-[2'-(3' ,5 '-dimethyl-4'-methoxy)pyridylmethylsulfinyl]imidazole] — lower, 19.2 µmol/kg
- Cn1ccnc1[S+]([O-])Cc1nc2cc(C(=O)c3ccccc3)ccc2[nH]1 (stereo not drawn) [XV, 1-methyl-2-[2'-(5'-benzoyl)benzimidazolylmethylsulfinyl]imidazole] — lower, 0.7 µmol/kg
- Cn1ccnc1[S+]([O-])Cc1ccc2ccccc2n1 (stereo not drawn) [XVIII, 1-methyl-2-(2'-quinolylmethylsulfinyl)imidazole] — lower, 39.4 µmol/kg
- CN(C)c1ccccc1CSc1nccn1-c1ccccc1F [XXXII, 1-(2'-fluorophenyl)-2-[2'-(N,N-dimethylanilyl)methylthio]imidazole] — lower, 23.9 µmol/kg
- CN(C)c1ccccc1CSc1nccn1-c1ccc(Cl)cc1 [XXXIV, 1-(4'-chlorophenyl)-2-[2'-(N,N-dimethylanilyl)methylthio]imidazole. 2HCl] — lower, 1.3 µmol/kg
- COc1ccccc1-n1ccnc1SCc1ccccc1N(C)C [XXXIII, 1-(2'-methoxyphenyl)-2-[2'-(N,N-dimethylanilyl)methylthio]imidazole] — lower, 2 µmol/kg

Same assay, conditions: ratio of mean ED50 on the 3 parameters of test compound to mean ED50 of omeprazole

With `COc1ccnc(C[S+]([O-])c2nccn2C)c1` (stereo not drawn) [XVI, 1-methyl-2-[2'-(4'-methoxypyridyl)methylsulfinyl]imidazole] the “PR (potency ratio in comparison with Omeprazole)” value was 0,3.
For `c1ccc2[nH]c(CSc3nc4cccnc4[nH]3)nc2c1` [XLVIII, 2-(2'-benzimidazolylmethylthio)imidazo-[4,5-b]-pyridine], the “PR (potency ratio in comparison with Omeprazole)” value was 110,9.
In the case of `COc1ccc(C)nc1C[S+]([O-])c1ncnc2[nH]cnc12` (stereo not drawn) [XLVI, 6-[2'-(6'-methyl-3'-methoxypyridyl)methylsulfinyl]purine], the “PR (potency ratio in comparison with Omeprazole)” value is reported as 15,8.
For `CN(C)c1ccccc1CSc1nccn1-c1ccccc1Cl` [XXXI, 1-(2'-clorophenyl)-2-[2'-(N,N-dimethylanilyl)methylthio]imidazole], the “PR (potency ratio in comparison with Omeprazole)” value was 18,4.
In the case of `CN(C)c1ccccc1CSc1nc2cncnc2[nH]1` [XLV, 8-[2'-(N,N-dimethylanilyl)methylthio]purine], the “PR (potency ratio in comparison with Omeprazole)” value is reported as 8,2.
With `Cn1ccnc1SCc1nc2ccccc2[nH]1` [IX, 1-methyl-2-(2'-benzimidazolylmethylthio)imidazole.2HCl] the “PR (potency ratio in comparison with Omeprazole)” value was 17,2.
For `COc1c(C)cnc(C[S+]([O-])c2nccn2C)c1C` (stereo not drawn) [XIV, 1-methyl-2-[2'-(3' ,5 '-dimethyl-4'-methoxy)pyridylmethylsulfinyl]imidazole], the “PR (potency ratio in comparison with Omeprazole)” value was 7,6.
In the case of `Cn1ccnc1[S+]([O-])Cc1nc2cc(C(=O)c3ccccc3)ccc2[nH]1` (stereo not drawn) [XV, 1-methyl-2-[2'-(5'-benzoyl)benzimidazolylmethylsulfinyl]imidazole], the “PR (potency ratio in comparison with Omeprazole)” value is reported as 0,5.
For `Cn1ccnc1[S+]([O-])Cc1ccc2ccccc2n1` (stereo not drawn) [XVIII, 1-methyl-2-(2'-quinolylmethylsulfinyl)imidazole], the “PR (potency ratio in comparison with Omeprazole)” value was 14,0.
In the case of `CN(C)c1ccccc1CSc1nccn1-c1ccccc1F` [XXXII, 1-(2'-fluorophenyl)-2-[2'-(N,N-dimethylanilyl)methylthio]imidazole], the “PR (potency ratio in comparison with Omeprazole)” value is reported as 10,1.
With `CN(C)c1ccccc1CSc1nccn1-c1ccc(Cl)cc1` [XXXIV, 1-(4'-chlorophenyl)-2-[2'-(N,N-dimethylanilyl)methylthio]imidazole. 2HCl] the “PR (potency ratio in comparison with Omeprazole)” value was 3,9.
With `COc1ccccc1-n1ccnc1SCc1ccccc1N(C)C` [XXXIII, 1-(2'-methoxyphenyl)-2-[2'-(N,N-dimethylanilyl)methylthio]imidazole] the “PR (potency ratio in comparison with Omeprazole)” value was 0,75.
